Holding throughout (assay type): functional
For test [1], the system named is Nakaseomyces glabratus. Nature of the test: Antifungal activity against Candida glabrata isolate 4708 expressing fks1 S645P mutant after 24 to 48 hrs by broth microdilution method.
Test [2] concerns Candida albicans. Nature of the test: Antifungal activity against Candida albicans isolate 4700 expressing fks1 F641Y mutant after 24 to 48 hrs by broth microdilution method. For orientation: In broth dilution the organism is exposed to a series of concentrations in liquid medium.
The subject of test [3] is Pichia kudriavzevii. Description: Antifungal activity against Candida krusei after 24 to 48 hrs by broth microdilution method.
The test system of test [4] is Candida albicans. Description: Antifungal activity against Candida albicans expressing fks1 F641S mutant after 24 to 48 hrs by broth microdilution method.
Test [5] relates to Nakaseomyces glabratus. Nature of the test: Antifungal activity against Candida glabrata isolate 4720 expressing fks2 S645P mutant after 24 to 48 hrs by broth microdilution method.
The test system of test [6] is Candida albicans. Description: Antifungal activity against Candida albicans after 24 to 48 hrs by broth microdilution method.
Test [7] deals with Nakaseomyces glabratus. Nature of the test: Antifungal activity against Candida glabrata isolate 4690 expressing fks2 L644W mutant after 24 to 48 hrs by broth microdilution method.
Test [8] deals with Candida tropicalis. Description: Antifungal activity against Candida tropicalis isolate 4748 expressing fks1 F641S mutant after 24 to 48 hrs by broth microdilution method.
In test [9] the test system is Candida tropicalis. Nature of the test: Antifungal activity against Candida tropicalis isolate 4780 expressing fks1 F641S mutant after 24 to 48 hrs by broth microdilution method.
In test [10] the test system is Nakaseomyces glabratus. Nature of the test: Antifungal activity against Candida glabrata after 24 to 48 hrs by broth microdilution method.
Test [11] concerns Nakaseomyces glabratus. Description: Antifungal activity against Candida glabrata isolate 4707 expressing fks2 S645P mutant after 24 to 48 hrs by broth microdilution method.
The test system of a further test is Candida. Nature of the test: Antifungal activity against Candida species after 24 to 48 hrs by broth microdilution method.
The subject of test [12] is Candida tropicalis. Description: Antifungal activity against Candida tropicalis expressing fks1 L644W mutant by EUCAST method.
Test [13] relates to Pichia kudriavzevii. Description: Antifungal activity against Candida krusei ATCC 6258 expressing fks1 L644W mutant by EUCAST method.

Values after ≈ are worked out from the molar mass of the structure shown. Starred links: 1 amine or outer side, 2 acyl side, 3 side chain; linkers in the order of their positions; H or OH if unused. Positions of bridges follow the written chain, without caps; N, C: chain ends. Non-standard residues stand in square brackets, D forms with d. Residues, ends and D or L forms follow the SMILES beside them. *: point of attachment. hTyr(3S-OH,4S-OH,3'-OSO3H) = N[C@H](C(=O)O)[C@H](O)[C@@H](O)c1ccc(O)c(OS(=O)(=O)O)c1; pTerphenylCO(4''-OnC5H11) = CCCCCOc1ccc(-c2ccc(-c3ccc(C(=O)*)cc3)cc2)cc1; Orn(4R-OH,5R-OH) = O=C([C@H](C[C@@H](O)[C@@H](O)N[*:3])N[*:1])[*:2]; hTyr(3S-OH,4S-OH) = N[C@H](C(=O)O)[C@H](O)[C@@H](O)c1ccc(O)cc1; Pro(3S-OH,4S-Me) = C[C@H]1CN[C@H](C(=O)O)[C@H]1O; X1 = CCCCCOc1ccc(-c2cc(-c3ccc(C(=O)*)cc3)no2)cc1; Gln(3R-OH) = NC(=O)C[C@@H](O)[C@H](N)C(=O)O; Hyp = O=C(O)[C@@H]1C[C@@H](O)CN1 Where only a bound is given, the exact number is not on record here.

As usually defined, the MIC is the lowest concentration found to suppress growth. Low values mean inhibition by little substance, high ones a need for much substance. Consider `CCCCCOc1ccc(-c2ccc(-c3ccc(C(=O)N[C@H]4C[C@@H](O)[C@@H](O)NC(=O)[C@@H]5[C@@H](O)[C@@H](C)CN5C(=O)[C@H]([C@@H](C)O)NC(=O)[C@H]([C@H](O)[C@@H](O)c5ccc(O)cc5)NC(=O)[C@@H]5C[C@@H](O)CN5C(=O)[C@H]([C@@H](C)O)NC4=O)cc3)cc2)cc1` [ANIDULAFUNGIN] ({pTerphenylCO(4''-OnC5H11)}-[Orn(4R-OH,5R-OH)]T[Hyp][hTyr(3S-OH,4S-OH)]T[Pro(3S-OH,4S-Me)]; lactam 1-C), for which the MIC with Nakaseomyces glabratus [1] is 4 µg/mL (≈ 3.51 µM); against Candida albicans [2] it was 0.12 µg/mL (≈ 0.105 µM); against Pichia kudriavzevii [3], 0.06 µg/mL (≈ 0.0526 µM); with Candida albicans [4], 0.12 µg/mL (≈ 0.105 µM); against Nakaseomyces glabratus [5], 4 µg/mL (≈ 3.51 µM); in the test with Candida albicans [6] it was no more than 0.12 µg/mL. The MIC against Nakaseomyces glabratus [7] was 0.12 µg/mL (≈ 0.105 µM); in the test on Candida tropicalis [8], 1 µg/mL (≈ 0.877 µM); in the test on Candida tropicalis [9], 1 µg/mL (≈ 0.877 µM); in the test with Nakaseomyces glabratus [10], no more than 0.12 µg/mL; with Nakaseomyces glabratus [11], 4 µg/mL (≈ 3.51 µM).
In the case of `CC[C@H](C)C[C@H](C)CCCCCCCCC(=O)N[C@H]1C[C@@H](O)[C@@H](NCCN)NC(=O)[C@@H]2[C@@H](O)CCN2C(=O)[C@H]([C@H](O)CCN)NC(=O)[C@H]([C@H](O)[C@@H](O)c2ccc(O)cc2)NC(=O)[C@@H]2C[C@@H](O)CN2C(=O)[C@H]([C@@H](C)O)NC1=O` [CASPOFUNGIN], the MIC against Candida is no more than 0.008 µg/mL; in the test on Nakaseomyces glabratus [1], no less than 8 µg/mL; in the test on Candida albicans [2] it was 1 µg/mL (≈ 0.915 µM); in the test on Candida tropicalis [12] it was 1 µg/mL (≈ 0.915 µM); with Pichia kudriavzevii [3] it was 1 µg/mL (≈ 0.915 µM); with Candida albicans [4] it was 2 µg/mL (≈ 1.83 µM). The MIC against Nakaseomyces glabratus [5] was no less than 8 µg/mL; with Candida albicans [6], no more than 0.06 µg/mL; against Nakaseomyces glabratus [7], 0.25 µg/mL (≈ 0.229 µM); against Candida tropicalis [8] it was 4 µg/mL (≈ 3.66 µM); against Candida tropicalis [9], 4 µg/mL (≈ 3.66 µM); in the test with Nakaseomyces glabratus [10], no more than 0.06 µg/mL. In addition, the MIC with Pichia kudriavzevii [13] and in the test with Nakaseomyces glabratus [11] was 8 µg/mL (≈ 7.32 µM) each time.
Consider `CCCCCOc1ccc(-c2cc(-c3ccc(C(=O)N[C@H]4C[C@@H](O)[C@@H](O)NC(=O)[C@@H]5[C@@H](O)[C@@H](C)CN5C(=O)[C@H]([C@H](O)CC(N)=O)NC(=O)[C@H]([C@H](O)[C@@H](O)c5ccc(O)c(OS(=O)(=O)O)c5)NC(=O)[C@@H]5C[C@@H](O)CN5C(=O)[C@H]([C@@H](C)O)NC4=O)cc3)no2)cc1` [MICAFUNGIN] (X1-[Orn(4R-OH,5R-OH)]T[Hyp][hTyr(3S-OH,4S-OH,3'-OSO3H)][Gln(3R-OH)][Pro(3S-OH,4S-Me)]; lactam 1-C), for which the MIC in the test on Nakaseomyces glabratus [1] was 4 µg/mL (≈ 3.15 µM); in the test on Candida albicans [2], 0.25 µg/mL (≈ 0.197 µM); against Candida albicans [4], 0.5 µg/mL (≈ 0.394 µM); with Nakaseomyces glabratus [5], 4 µg/mL (≈ 3.15 µM); in the test with Candida albicans [6], no more than 0.06 µg/mL; with Nakaseomyces glabratus [7], 0.06 µg/mL (≈ 0.0472 µM). For the same compound, the minimum inhibitory concentration (MIC) is 0.5 µg/mL (≈ 0.394 µM) with Candida tropicalis [8], 0.5 µg/mL (≈ 0.394 µM) in the test with Candida tropicalis [9], no more than 0.06 µg/mL with Nakaseomyces glabratus [10] and 2 µg/mL (≈ 1.57 µM) in the test on Nakaseomyces glabratus [11].

The values above are taken from ChEMBL document CHEMBL1255489, “Low prevalence of fks1 hot spot 1 mutations in a worldwide collection of Candida strains” (2010).
